Laboratory results as given in publication PMC8286840, “Identifying SARS-CoV-2 antiviral compounds by screening for small molecule inhibitors of Nsp3 papain-like protease” (Biochemical Journal, 2021).
Structures can show the parent of a compound that is named as a salt. Where two headings read alike, the source gives them in different places. Where a SMILES comes first, the peptide text is derived from it.

Experiments:
[1] = target: T1, SARS-CoV-2 PLpro (nsp3 1564–1878) (Severe acute respiratory syndrome coronavirus 2, UniProt P0DTD1); assay: biochemical; design: FRET-quenched peptide (Pro3) cleavage by PLpro, 10 min pre-incubation, slope over 20 min, normalised to no-compound control; details: read-out: % of control remaining
[2] = target: T1, SARS-CoV-2 PLpro (nsp3 1564–1878); assay: biochemical; design: FRET-quenched peptide (Pro3) cleavage by PLpro, 10 min pre-incubation, slope over 20 min, normalised to no-compound control; details: read-out: % of control remaining; remark: listed apart in the source

O=C(O)CCCCCCC(=O)O [Octanedioic acid]
remaining activity at 1.25 µM ([1]; Well no.=6931, low concentration screen): 108%
remaining activity at 3.75 µM ([2]; Well no.=6931, high concentration screen): 103%

CCCCCCCC(=O)O [Octanoic acid]
remaining activity at 1.25 µM ([1]; Well no.=6591, low concentration screen): 104%
remaining activity at 3.75 µM ([2]; Well no.=6591, high concentration screen): 110%

NCC(O)c1ccc(O)cc1 (stereo not shown) [Octopamine (hydrochloride)]
remaining activity at 1.25 µM ([1]; Well no.=6713, low concentration screen): 98.8%
remaining activity at 3.75 µM ([2]; Well no.=6713, high concentration screen): 98.6%

C[C@@H](O)[C@@H]1NC(=O)[C@H](CCCCN)NC(=O)[C@@H](Cc2c[nH]c3ccccc23)NC(=O)[C@H](Cc2ccccc2)NC(=O)[C@@H](NC(=O)[C@H](N)Cc2ccccc2)CSSC[C@@H](C(=O)N[C@H](CO)[C@@H](C)O)NC1=O [Octreotide (acetate)]
remaining activity at 1.25 µM ([1]; Well no.=6556, low concentration screen): 92.6%
remaining activity at 1.25 µM ([1]; Well no.=7396, low concentration screen): 97.5%
remaining activity at 3.75 µM ([2]; Well no.=6556, high concentration screen): 94.1%
remaining activity at 3.75 µM ([2]; Well no.=7396, high concentration screen): 93.2%

C[C@@H](O)[C@@H]1NC(=O)[C@H](CCCCN)NC(=O)[C@@H](Cc2c[nH]c3ccccc23)NC(=O)[C@H](Cc2ccccc2)NC(=O)[C@@H](NC(=O)[C@H](N)Cc2ccccc2)CSSC[C@@H](C(=O)N[C@H](CO)[C@@H](C)O)NC1=O [Octreotide]
remaining activity at 1.25 µM ([1]; Well no.=1977, low concentration screen): 103%
remaining activity at 3.75 µM ([2]; Well no.=1977, high concentration screen): 107%

CC(C)(F)C[C@H](N[C@@H](c1ccc(-c2ccc(S(C)(=O)=O)cc2)cc1)C(F)(F)F)C(=O)NC1(C#N)CC1 [Odanacatib (MK-0822)]
remaining activity at 1.25 µM ([1]; Well no.=8836, low concentration screen): 88.7%
remaining activity at 3.75 µM ([2]; Well no.=8836, high concentration screen): 92.8%

CC1COc2c(N3CCN(C)CC3)c(F)cc3c(=O)c(C(=O)O)cn1c23 (stereo not shown) [Ofloxacin]
remaining activity at 1.25 µM ([1]; Well no.=898, low concentration screen): 106%
remaining activity at 1.25 µM ([1]; Well no.=2047, low concentration screen): 104%
remaining activity at 3.75 µM ([2]; Well no.=898, high concentration screen): 105%
remaining activity at 3.75 µM ([2]; Well no.=2047, high concentration screen): 104%

N[C@@H](CCC(=O)O)C(=O)N[C@@H](Cc1c[nH]c2ccccc12)C(=O)O [Oglufanide] (H-Glu-Trp-OH)
remaining activity at 1.25 µM ([1]; Well no.=8604, low concentration screen): 107%
remaining activity at 3.75 µM ([2]; Well no.=8604, high concentration screen): 101%

Cc1cc2c(s1)Nc1ccccc1N=C2N1CCN(C)CC1 [Olanzapine]
remaining activity at 1.25 µM ([1]; Well no.=1828, low concentration screen): 93.3%
remaining activity at 1.25 µM ([1]; Well no.=8193, low concentration screen): 106%
remaining activity at 3.75 µM ([2]; Well no.=1828, high concentration screen): 95.2%
remaining activity at 3.75 µM ([2]; Well no.=8193, high concentration screen): 111%

CC1(C)CC[C@]2(C(=O)O)CC[C@]3(C)C(=CC[C@@H]4[C@@]5(C)CC[C@H](O)C(C)(C)[C@@H]5CC[C@]43C)[C@@H]2C1 [Oleanolic acid]
remaining activity at 1.25 µM ([1]; Well no.=3448, low concentration screen): 96.1%
remaining activity at 1.25 µM ([1]; Well no.=6443, low concentration screen): 95.4%
remaining activity at 3.75 µM ([2]; Well no.=3448, high concentration screen): 91.6%
remaining activity at 3.75 µM ([2]; Well no.=6443, high concentration screen): 96.8%

CCCCCCCC/C=C\CCCCCCCC(=O)O [Oleic Acid]
remaining activity at 1.25 µM ([1]; Well no.=848, low concentration screen): 102%
remaining activity at 3.75 µM ([2]; Well no.=848, high concentration screen): 101%
remaining activity at 3.75 µM ([2]; Well no.=7347, high concentration screen): 104%

CCCCCCCC/C=C\CCCCCCCC(=O)NCCc1ccc(O)c(O)c1 [Oleoyl dopamine]
remaining activity at 1.25 µM ([1]; Well no.=4539, low concentration screen): 95.5%
remaining activity at 3.75 µM ([2]; Well no.=4539, high concentration screen): 100%

CC[C@@H]1/C=C/C=C/C[C@H](C)[C@H](O)[C@](C)(O)C(=O)[C@H](C)[C@@H](O)[C@H](C)C(=O)[C@H](C)[C@@H](O)[C@H](C)/C=C/C(=O)O[C@H]2[C@@H](C)[C@@H](CC1)O[C@@]1(CC[C@@H](C)[C@@H](C[C@H](C)O)O1)[C@@H]2C [Oligomycin A]
remaining activity at 1.25 µM ([1]; Well no.=850, low concentration screen): 105%
remaining activity at 1.25 µM ([1]; Well no.=3423, low concentration screen): 98.1%
remaining activity at 3.75 µM ([2]; Well no.=850, high concentration screen): 103%
remaining activity at 3.75 µM ([2]; Well no.=3423, high concentration screen): 96.5%

CCCc1nc(C(C)(C)O)c(C(=O)OCc2oc(=O)oc2C)n1Cc1ccc(-c2ccccc2-c2nnn[nH]2)cc1 [Olmesartan (medoxomil)]
remaining activity at 1.25 µM ([1]; Well no.=7579, low concentration screen): 98.2%
remaining activity at 3.75 µM ([2]; Well no.=7579, high concentration screen): 92.2%

CCCc1nc(C(C)(C)O)c(C(=O)O)n1Cc1ccc(-c2ccccc2-c2nnn[nH]2)cc1 [Olmesartan]
remaining activity at 1.25 µM ([1]; Well no.=1794, low concentration screen): 94.8%
remaining activity at 1.25 µM ([1]; Well no.=7669, low concentration screen): 100%
remaining activity at 3.75 µM ([2]; Well no.=1794, high concentration screen): 95.4%
remaining activity at 3.75 µM ([2]; Well no.=7669, high concentration screen): 99%

COc1ccc2c(c1OCc1ccccc1)C[C@@H](C(=O)O)N(C(=O)C(c1ccccc1)c1ccccc1)C2 [Olodanrigan]
remaining activity at 1.25 µM ([1]; Well no.=8122, low concentration screen): 100%
remaining activity at 3.75 µM ([2]; Well no.=8122, high concentration screen): 99.4%

Cn1cnc2c(NCc3ccccc3)nc(NCCO)nc21 [Olomoucine - 6-(Benzylamino)-2-(2-hydroxyethylamino)-9-methylpurine]
remaining activity at 1.25 µM ([1]; Well no.=2382, low concentration screen): 101%
remaining activity at 3.75 µM ([2]; Well no.=2382, high concentration screen): 102%

CC[C@H](CO)Nc1nc(NCc2ccccc2O)c2ncn(C(C)C)c2n1 [Olomoucine II]
remaining activity at 1.25 µM ([1]; Well no.=2523, low concentration screen): 99.8%
remaining activity at 3.75 µM ([2]; Well no.=2523, high concentration screen): 102%

Cn1cnc2c(NCc3ccccc3)nc(NCCO)nc21 [Olomoucine]
remaining activity at 1.25 µM ([1]; Well no.=800, low concentration screen): 96.5%
remaining activity at 3.75 µM ([2]; Well no.=800, high concentration screen): 98.3%

CN(C)CC/C=C1/c2ccccc2COc2ccc(CC(=O)O)cc21 [Olopatadine (hydrochloride)]
remaining activity at 1.25 µM ([1]; Well no.=8201, low concentration screen): 104%
remaining activity at 3.75 µM ([2]; Well no.=8201, high concentration screen): 102%

O=C(O)c1cc(/N=N/c2ccc(O)c(C(=O)O)c2)ccc1O [Olsalazine (Disodium)]
remaining activity at 1.25 µM ([1]; Well no.=7496, low concentration screen): 93.9%
remaining activity at 3.75 µM ([2]; Well no.=7496, high concentration screen): 92.2%

O=C(O)c1cc(/N=N/c2ccc(O)c(C(=O)O)c2)ccc1O [Olsalazine Sodium]
remaining activity at 1.25 µM ([1]; Well no.=4688, low concentration screen): 101%
remaining activity at 3.75 µM ([2]; Well no.=4688, high concentration screen): 97.9%

Cc1c(-c2cnccn2)ssc1=S [Oltipraz]
remaining activity at 1.25 µM ([1]; Well no.=2049, low concentration screen): 109%
remaining activity at 3.75 µM ([2]; Well no.=2049, high concentration screen): 112%

CCCCCCCC/C=C\CCCCCCCC(=O)NCc1ccc(O)c(OC)c1 [Olvanil]
remaining activity at 1.25 µM ([1]; Well no.=5771, low concentration screen): 94.2%
remaining activity at 3.75 µM ([2]; Well no.=5771, high concentration screen): 90%

O=C(N[C@H]1CCS[C@H]2CCC[C@@H](C(=O)O)N2C1=O)[C@@H](S)Cc1ccccc1 [Omapatrilat]
remaining activity at 1.25 µM ([1]; Well no.=8466, low concentration screen): 99.9%
remaining activity at 3.75 µM ([2]; Well no.=8466, high concentration screen): 95%

CS(=O)(=O)n1cc2c(n1)CN([C@H]1CO[C@H](c3cc(F)ccc3F)[C@@H](N)C1)C2 [Omarigliptin (MK-3102)]
remaining activity at 1.25 µM ([1]; Well no.=8824, low concentration screen): 98.1%
remaining activity at 3.75 µM ([2]; Well no.=8824, high concentration screen): 96.5%

COc1ccc2[nH]c([S+]([O-])Cc3ncc(C)c(OC)c3C)nc2c1 (stereo not shown) [Omeprazole]
remaining activity at 1.25 µM ([1]; Well no.=2051, low concentration screen): 101%
remaining activity at 3.75 µM ([2]; Well no.=2051, high concentration screen): 101%

O=Cc1cn(Cc2ccc(Cl)cc2)c2ccccc12 [Oncrasin-1]
remaining activity at 1.25 µM [1]: 95.2%
remaining activity at 3.75 µM [2]: 101%

Cc1nccn1CC1CCc2c(c3ccccc3n2C)C1=O (stereo not shown) [Ondansetron]
remaining activity at 1.25 µM ([1]; Well no.=2104, low concentration screen): 102%
remaining activity at 3.75 µM ([2]; Well no.=2104, high concentration screen): 102%

OCCN1CCN(CCCN2c3ccccc3C=Cc3ccccc32)CC1 [Opipramol dihydrochloride]
remaining activity at 1.25 µM ([1]; Well no.=5510, low concentration screen): 97.5%
remaining activity at 3.75 µM ([2]; Well no.=5510, high concentration screen): 101%
